Results on three compounds are retold here after US4068074A, “Cephalosporin derivatives having at the 3-position of the cephem ring a heterocyclic thiomethyl group with a carboxy or sulfo group and at the 7-position of the cephem ring an α-heterocylic acylaminophenyl-acetamide group” (priority 1974, dated 1978).

Common to all, as to format: cell-based
One experiment deals with Proteus vulgaris OXK US. Nature of the experiment: MIC against bacteria (Table I), strain (1). The settings on record: Proteus vulgaris. An excerpt: (§1) Now, for illustrating the excellent pharmacological effects of the compounds of this invention, the values of MIC (γ/ml.) of the compounds against various bacteria are shown in Table 1, in which the compounds of this invention used are shown by example numbers.
(1) Proteus vulgaris OXK US

In another experiment the test system is Proteus vulgaris 0X 19US. In words: MIC against bacteria (Table I), strain (2). As to conditions: 0X19US.
Excerpt: as §1
(2) Proteus vulgaris 0X 19US

Experiment [1] relates to Pseudomonas aeruginosa ATCC 8689. In words: MIC against bacteria (Table I), strain (4). As to conditions: ATCC8689; (4) Pseudomonas aeruginosa ATCC 8689; read-out: MIC.
Excerpt: as §1
(4) Pseudomonas aeruginosa ATCC 8689

For experiment [2], the system named is Escherichia coli kauffmann 0-1. Nature of the experiment: MIC against bacteria (Table I), strain (7). As to conditions: Escherichia coli.
Excerpt: as §1
(7) Escherichia coli kauffmann 0-1

Experiment [3] concerns Klebsiella pneumoniae ATCC 10031. Nature of the experiment: MIC against bacteria (Table I), strain (8). As to conditions: ATCC10031.
Excerpt: as §1
(8) Klebsiella pneumoniae ATCC 10031

For a further experiment, the system named is Salmonella typhi H901 W. In words: MIC against bacteria (Table I), strain (9). As to conditions: Salmonella enterica, TYPHI.
Excerpt: as §1
(9) Salmonella typhi H901 W

The next experiment concerns Salmonella enteritidis. Nature of the experiment: MIC against bacteria (Table I), strain (10). The settings on record: Salmonella enterica.
Excerpt: as §1
(10) Salmonella enteritidis

Experiment [4] has as its system Shigella flexneri 2a 1675. Nature of the experiment: MIC against bacteria (Table I), strain (11). The settings on record: 2A1675; (11) Shigella flexneri 2a 1675; read-out: MIC.
Excerpt: as §1

A further experiment concerns Shigella sonnei II 37148. In words: MIC against bacteria (Table I), strain (12). As to conditions: II37148; (12) Shigella sonnei II 37148; read-out: MIC.
Excerpt: as §1

Experiment [5] has as its system Bacillus megatherium 10778. Nature of the experiment: MIC against bacteria (Table I), strain (13).
Excerpt: as §1

In experiment [6] the test system is Bacillus subtilis ATCC 6633. In words: MIC against bacteria (Table I), strain (14). As to conditions: ATCC6633.
Excerpt: as §1
(14) Bacillus subtilis ATCC 6633

Experiment [7] concerns Micrococcus flavus ATCC 10240. In words: MIC against bacteria (Table I), strain (15). The settings on record: ATCC10240.
Excerpt: as §1
(15) Micrococcus flavus ATCC 10240

Experiment [8] relates to Staphylococcus aureus 209P. In words: MIC against bacteria (Table I), strain (16). As to conditions: Staphylococcus aureus, 209P.
Excerpt: as §1
(16) Staphylococcus aureus 209P

Experiment [9] has as its system Staphylococcus Shimanishi. Nature of the experiment: MIC against bacteria (Table I), strain (17).
Excerpt: as §1
(17) Staphylococcus Shimanishi

A further experiment concerns Staphylococcus Onuma. Nature of the experiment: MIC against bacteria (Table I), strain (18).
Excerpt: as §1
(18) Staphylococcus Onuma

For experiment [10], the system named is Proteus mirabilis IXM OM-19. Nature of the experiment: MIC against bacteria (Table I), strain (3). As to conditions: IXMOM19; (3) Proteus mirabilis IXM OM-19; read-out: MIC.
Excerpt: as §1
(3) Proteus mirabilis IXM OM-19

Experiment [11] deals with Pseudomonas aeruginosa 99 (Gentamycin resistant). Nature of the experiment: MIC against bacteria (Table I), strain (5). As to conditions: (5) Pseudomonas aeruginosa 99 (Gentamycin resistant); read-out: MIC.
Excerpt: as §1
(5) Pseudomonas aeruginosa 99 (Gentamycin resistant)

Experiment [12] relates to Psuedomonas ovalis IMA 1002. Nature of the experiment: MIC against bacteria (Table I), strain (6). The settings on record: (6) Psuedomonas ovalis IMA 1002; read-out: MIC.
Excerpt: as §1
(6) Psuedomonas ovalis IMA 1002

The mark [13] stands for this setting: (8) Klebsiella pneumoniae ATCC 10031, read-out: MIC.
Where [14] appears, read: (2) Proteus vulgaris 0X 19US, read-out: MIC.
The mark [15] stands for this setting: (10) Salmonella enteritidis, read-out: MIC.
Setting [16] is: (13) Bacillus megatherium 10778, read-out: MIC.
The mark [17] stands for this setting: (14) Bacillus subtilis ATCC 6633, read-out: MIC.

Converted amounts (≈) assume the structure as drawn. Where two headings read alike, the source gives them in different places.

Take `CC1=C(C(=O)O)N2C(=O)[C@@H](NC(=O)[C@H](N)c3ccccc3)[C@H]2SC1` [Cephalexin, reference compound]: the MIC with Proteus vulgaris OXK US was 30 µg/mL (≈ 86.4 µM); with Proteus vulgaris 0X 19US (Proteus vulgaris) it was 30 µg/mL (≈ 86.4 µM); in experiment [1] it was greater than 100 µg/mL; in experiment [2], 10 µg/mL (≈ 28.8 µM); in experiment [3] (setting [13]) it was 3 µg/mL (≈ 8.64 µM); in the experiment with Salmonella typhi H901 W, 6.25 µg/mL (≈ 18 µM). Also, the MIC in the experiment on Salmonella enteritidis (ENTERITIDIS) worked out at 6.25 µg/mL (≈ 18 µM); in experiment [4], 6.25 µg/mL (≈ 18 µM); in the experiment on Shigella sonnei II 37148 it was 6.25 µg/mL (≈ 18 µM); in experiment [5] (Bacillus, 10778) it was 0.78 µg/mL (≈ 2.25 µM); in experiment [6] (Bacillus subtilis) it was 0.78 µg/mL (≈ 2.25 µM); in experiment [7] (Micrococcus flavus), 1.56 µg/mL (≈ 4.49 µM). The values for the MIC (in [8]; in experiment [9] (Staphylococcus); with Staphylococcus Onuma (Staphylococcus)) were 1.56 µg/mL (≈ 4.49 µM), 6.25 µg/mL (≈ 18 µM) and 12.5 µg/mL (≈ 36 µM), respectively.
For the compound `Cc1nc(SCC(=O)O)cc(SCC2=C(C(=O)O)N3C(=O)[C@@H](NC(=O)[C@H](NC(=O)c4cnccc4O)c4ccccc4)[C@H]3SC2)n1` [Example 17, 7-[D-α-(4-hydroxynicotinoylamido)-α-phenylacetamido]-3-(6-carboxymethylthio-2-methylpyrimidin-4-yl)thiomethyl-Δ^3-cephem-4-carboxylic acid], the MIC in the experiment on Proteus vulgaris 0X 19US (setting [14]) is 1.56 µg/mL (≈ 2.28 µM); in experiment [10], 0.19 µg/mL (≈ 0.278 µM); in experiment [11] it was 50 µg/mL (≈ 73.2 µM); in experiment [12], 25 µg/mL (≈ 36.6 µM); in experiment [2], 6.25 µg/mL (≈ 9.15 µM); in [3] (Klebsiella pneumoniae), 6.25 µg/mL (≈ 9.15 µM). Further, the minimum inhibitory concentration (MIC) in the experiment on Salmonella typhi H901 W was determined as 3.13 µg/mL (≈ 4.58 µM); in the experiment on Salmonella enteritidis (setting [15]), 0.19 µg/mL (≈ 0.278 µM); in experiment [4], 3.13 µg/mL (≈ 4.58 µM); with Shigella sonnei II 37148 it was 6.25 µg/mL (≈ 9.15 µM); in experiment [5] (setting [16]), 0.39 µg/mL (≈ 0.571 µM); in experiment [6] (setting [17]), 0.39 µg/mL (≈ 0.571 µM). Also, the minimum inhibitory concentration (MIC) in experiment [7] (Micrococcus flavus) was 6.25 µg/mL (≈ 9.15 µM); in experiment [8], 0.19 µg/mL (≈ 0.278 µM); in experiment [9] (Staphylococcus), 6.25 µg/mL (≈ 9.15 µM); in the experiment with Staphylococcus Onuma (Staphylococcus), 6.25 µg/mL (≈ 9.15 µM).
For the compound `O=C(O)Cn1nc(SCC2=C(C(=O)O)N3C(=O)[C@@H](NC(=O)[C@H](NC(=O)c4cnccc4O)c4ccccc4)[C@H]3SC2)ccc1=O` [Example 18, 7-[D-α-(4-hydroxynicotinoylamido)-α-phenylacetamido]-3-(1-carboxymethyl-6(1H)-pyridazinon-3-yl)thiomethyl-Δ^3-cephem-4-carboxylic acid], the minimal inhibitory concentration (MIC) with Proteus vulgaris 0X 19US (setting [14]) worked out at 1.56 µg/mL (≈ 2.39 µM); in experiment [10], 0.78 µg/mL (≈ 1.2 µM); in [11] it was 25 µg/mL (≈ 38.3 µM); in [12], 25 µg/mL (≈ 38.3 µM); in [2], 12.5 µg/mL (≈ 19.2 µM); in experiment [3] (setting [13]), 25 µg/mL (≈ 38.3 µM). Moreover, the minimal inhibitory concentration (MIC) with Salmonella typhi H901 W worked out at 3.13 µg/mL (≈ 4.8 µM); in the experiment on Salmonella enteritidis (setting [15]), 1.56 µg/mL (≈ 2.39 µM); in [4], 12.5 µg/mL (≈ 19.2 µM); with Shigella sonnei II 37148, 25 µg/mL (≈ 38.3 µM); in experiment [5] (setting [16]), 0.39 µg/mL (≈ 0.598 µM); in experiment [6] (setting [17]), 0.39 µg/mL (≈ 0.598 µM). For the same compound, the minimal inhibitory concentration (MIC) in [7] ((15) Micrococcus flavus ATCC 10240, read-out: MIC) is 25 µg/mL (≈ 38.3 µM); in [8] it was 1.56 µg/mL (≈ 2.39 µM); in experiment [9] ((17) Staphylococcus Shimanishi, read-out: MIC), 6.25 µg/mL (≈ 9.58 µM); in the experiment with Staphylococcus Onuma ((18) Staphylococcus Onuma, read-out: MIC) it was 6.25 µg/mL (≈ 9.58 µM).

The MIC is the lowest concentration that inhibits growth of the organism.
